Source: the supplement of paper PMC10949913

Legend:
Details in all cases: 48 h
[1] = tested on: CU-ACC1; assay: AC50 viability; higher = less potent
How it was run: (§1)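 After 48 h of treatment with 23 nL of each library compound at 11 concentrations, three adrenocortical carcinoma cell lines in 1,536-well plates (500–1,000 cells/well, 5 µL medium) were given CellTiter-Glo for 15 minutes at room temperature. Luminescence was then read and normalised per plate to vehicle and empty-well controls. AC50 and area under the curve were drawn from fitted concentration-response curves of inhibitory or non-responding classes only.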

[2] = tested on: NCI-H295R; assay: AC50 viability; higher = less potent
How it was run: as §1

[3] = tested on: CU-ACC1; assay: area under concentration-response curve (viability) (AUC (a.u.)); higher = less active
How it was run: as §1

[4] = tested on: CU-ACC2; assay: as above
How it was run: as §1

[5] = tested on: NCI-H295R; assay: as above
How it was run: as §1

Row | Compound | AC50 viability [1] | AC50 viability [2] | area under concentration-response curve [3] | area under concentration-response curve [4] | area under concentration-response curve [5]
1 | COc1ncc(Nc2ncc([C@H](C)N3CCN([S+](C)(=O)[O-])CC3)cc2-c2nc(C)nc(N)n2)cc1F | 1.32 µM | 0.934 µM | 387 | 473 | 392
2 | ONC(=O)C1=CC=C(C=C1)C/2=N/C3=CC=CC=C3OC4=C2C=CC=C4 | 16.6 µM | 16.6 µM | 362 | 507 | 557
3 | COc1cc(OC)cc(N(CCNC(C)C)c2ccc3ncc(-c4cnn(C)c4)nc3c2)c1 | 23.5 µM | 18.6 µM | 499 | 603 | 526
4 | CCC[S+](=O)([O-])c1nc(NC2CC2)cc(-c2ccc3c(ccn3C3CC(C)(C)NC(C)(C)C3)c2)n1 | 3.93 µM | 3.12 µM | 490 | 580 | 530
5 | Cc1cccc(-c2[nH]c(C(C)(C)C)nc2-c2ccc3c(c2)OCO3)n1 | 5.25 µM | 11.8 µM | 426 | 595 | 481
6 | O=C(Nc1cccnc1)N1CCC(Cc2cccc(Oc3ccc(C(F)(F)F)cn3)c2)CC1 | 5.25 µM | 18.6 µM | 406 | 559 | 500
7 | CC(C)(O)C[S+](=O)([O-])Nc1ccc2c(c1)CCN(C(=O)COc1cccnc1)C2 | 0.295 µM | 1.05 µM | 334 | 390 | 483
8 | NC(=O)c1ccccc1Nc1ccnc(Nc2cccc(O)c2)n1 | 20.9 µM | 2.63 µM | 465 | 553 | 462
9 | Cn1cc(/C=C/C(=O)c2cccc(F)c2)cc1/C=C/C(=O)NO | 5.9 µM | 8.33 µM | 428 | 513 | 439
10 | CC1=C(C)C2=C(S1)[N]3C(=NN=C3[C@H](CC(=O)OC(C)(C)C)/N=C2/C4=CC=C(Cl)C=C4)C | 18.6 µM | 16.6 µM | 432 | 553 | 520
11 | CCc1ccc(C(=O)Nc2cc(CN3CCN(C)CC3)cc(C(F)(F)F)c2)cc1C#Cc1cnc2ccnn2c1 | 7.42 µM | 8.33 µM | 453 | 559 | 431
12 | CCN(CCO)CCCOc1ccc2c(Nc3cc(CC(=O)Nc4cccc(F)c4)[nH]n3)ncnc2c1 | 23.5 µM | 16.6 µM | 390 | 569 | 483
13 | COc1cc2ncnc(Nc3cccc(Cl)c3)c2cc1OC | 13.2 µM | 20.9 µM | 558 | 610 | 562
14 | CCNC(=O)C[C@@H]1\N=C(C2=CC=C(Cl)C=C2)/C3=C(C=CC(=C3)OC)[N]4C(=NN=C14)C | 13.2 µM | 8.33 µM | 423 | 500 | 457
15 | Cc1cccc(CN2CCN(C(c3ccccc3)c3ccc(Cl)cc3)CC2)c1 (stereo not given) | 13.2 µM | 16.6 µM | 422 | 534 | 495
16 | CNC(=O)Nc1ccc(-c2nc(N3CC4CCC(C3)O4)c3cnn(C4CCC5(CC4)OCCO5)c3n2)cc1 | 0.148 µM | 1.05 µM | 404 | 520 | 455
17 | O=C(CCCCCCC(=O)Nc1cccnc1)NO | 9.34 µM | 13.2 µM | 489 | 589 | 533
18 | CC/1=C/C(=O)N(O)/C(=C1)C2CCCCC2 | 10.5 µM | 7.42 µM | 505 | 570 | 528
19 | COc1cc(OC)cc(N2CCN(C(=O)Nc3nc4cc(F)ccc4nc3OC)CC2)c1 | 23.5 µM | 16.6 µM | 503 | 556 | 454
20 | COc1ccc(CCN(C)CCCC(C#N)(c2ccc(OC)c(OC)c2)C(C)C)cc1OC (stereo not given) | 29.5 µM | 23.5 µM | 397 | 490 | 397

Row | Compound | AC50 viability [1] | AC50 viability [2] | area under concentration-response curve [3] | area under concentration-response curve [4] | area under concentration-response curve [5]
21 | N=C(N)c1ccc(OCCCCCOc2ccc(C(=N)N)cc2)cc1 | 13.2 µM | 14.8 µM | 437 | 561 | 453
22 | O=C(/C=C\n1cnc(-c2cc(C(F)(F)F)cc(C(F)(F)F)c2)n1)N1CC(F)(F)C1 | 1.32 µM | 0.59 µM | 448 | 467 | 456
23 | CCC[C@H](NC(=O)[C@@H]1[C@H]2CCC[C@H]2CN1C(=O)[C@@H](NC(=O)[C@@H](NC(=O)c1cnccn1)C1CCCCC1)C(C)(C)C)C(=O)C(=O)NC1CC1 | 0.00105 µM | 33.2 µM | 333 | 299 | 285
24 | O=C([O-])C[C@H](O)C[C@H](O)/C=C/c1c(C2CC2)nc2ccccc2c1-c1ccc(F)cc1 | 4.68 µM | 10.5 µM | 394 | 478 | 464
25 | C=C(C)[C@H]1Cc2c(ccc3c2O[C@@H]2COc4cc(OC)c(OC)cc4[C@@H]2C3=O)O1 | 0.166 µM | 1.05 µM | 344 | 479 | 445
26 | CCCOc1ccc(CCc2nc3cc(-c4c(C)noc4C)ccc3n2CCN2CCOCC2)cc1 | 14.8 µM | 20.9 µM | 482 | 567 | 479
27 | FC(F)(F)c1ccc(C/N=c2\ccc(Cc3c[nH]c4ncccc34)c[nH]2)cc1 | 16.6 µM | 11.8 µM | 511 | 597 | 541
28 | C[S+](=O)([O-])N1CCc2c(-c3cnc(N)nc3)nc(N3CCOCC3)nc21 | 1.18 µM | 0.417 µM | 403 | 345 | 389
29 | FC(F)c1nc2ccccc2n1-c1nc(N2CCOCC2)nc(N2CCOCC2)n1 | 0.59 µM | 0.934 µM | 413 | 487 | 399
30 | Cc1nc(-c2cn3c(n2)-c2ccc(-c4cnn(C(C)(C)C(N)=O)c4)cc2OCC3)n(C(C)C)n1 | 0.132 µM | 0.934 µM | 414 | 528 | 458
31 | NC1=NC=C(C=C1)C2=CC=C3N=CC\4=C(N(C(=O)\C=C4)C5=CC(=CC=C5)C(F)(F)F)C3=C2 | 0.235 µM | 0.0833 µM | 314 | 387 | 294
32 | C[C@H](NC(=O)c1sccc1OCc1ccc(Cl)cc1)c1ccccc1 | 10.5 µM | 20.9 µM | 456 | 571 | 504
33 | C[C@@H]1O[C@@H](O[C@@H]2C=C3CC[C@@H]4[C@H](CC[C@]5(C)[C@@H](c6ccc(=O)oc6)CC[C@]45O)[C@@]3(C)CC2)[C@H](O)[C@H](O)[C@H]1O | 0.0148 µM | 0.0332 µM | 219 | 307 | 277
34 | CNC(=O)c1cc(Oc2ccc(NC(=O)Nc3ccc(Cl)c(C(F)(F)F)c3)c(F)c2)ccn1 | 37.2 µM | 20.9 µM | 436 | 596 | 545
35 | COc1c(N2C[C@@H]3CCCN[C@@H]3C2)c(F)cc2c(=O)c(C(=O)O)cn(C3CC3)c12.Cl.O | 0.525 µM | 0.118 µM | 400 | 484 | 399
36 | O=[S+]([O-])(Nc1ccc(-c2cccnc2)c2cccnc12)c1cccc(C(F)(F)F)c1 | 4.68 µM | 4.17 µM | 456 | 595 | 486
37 | N#Cc1ccc(-c2c(-c3nnc[nH]3)sc(N3CCOCC3)c2C#N)c(F)c1 | 7.42 µM | 4.68 µM | 465 | 568 | 478
38 | Cc1ccc(C(C)(O)c2nc3ccccc3s2)c(C)c1 (stereo not given) | 8.33 µM | 16.6 µM | 421 | 511 | 464
39 | Cc1cnc(NC(=O)Nc2cc(Br)c(C)cc2OC[C@@H]2CNCCO2)cn1 | 6.61 µM | 4.68 µM | 486 | 613 | 524
40 | CN1CCN(c2ccc3nc(-c4cc(C(C)(C)C)c(OCCCC(=O)NCCCN=[N+]=[N-])c(C(C)(C)C)c4)[nH]c3c2)CC1 | 7.42 µM | 7.42 µM | 462 | 566 | 508

Row | Compound | AC50 viability [1] | AC50 viability [2] | area under concentration-response curve [3] | area under concentration-response curve [4] | area under concentration-response curve [5]
41 | Cc1ccc(NC(=O)c2ccc(CN3CCNCC3)cc2)cc1Nc1nccc(-c2cccnc2)n1 | 6.61 µM | 26.3 µM | 496 | 600 | 518
42 | C=C1C(=O)O[C@H]2C[C@H](C)C(/C=C/C(C)=O)=CC[C@H]12 | 9.34 µM | 18.6 µM | 450 | 529 | 519
43 | C/C(=N\Nc1nnc2c(n1)[nH]c1c(C)cccc12)c1ccccn1 | 2.35 µM | 9.34 µM | 403 | 533 | 415
44 | CC[C@@H](C)Nc1cc(C(=O)NC2CC3CCC(C2)N3c2ccc(C(=O)C3CC3)cn2)c(C)cc1C(N)=O (stereo not given in full) | 1.32 µM | 0.934 µM | 346 | 436 | 382
45 | O=C1NC(=O)[C@@H](c2c[nH]c3ccccc23)[C@H]1c1cn2c3c(cccc13)CCC2 | 20.9 µM | 0.59 µM | 494 | 611 | 504
46 | Nc1n[n+]([O-])c2ccccc2[n+]1[O-] | 29.5 µM | 20.9 µM | 474 | 617 | 529
47 | Cc1ccc([S+](=O)([O-])Cc2nc(-c3ccc(C(=O)NCc4cccnc4)cc3)oc2C)cc1 | 0.0742 µM | 0.263 µM | 290 | 402 | 379
48 | NC(=O)c1ccc2[nH]c(-c3ccc(Oc4ccc(Cl)cc4)cc3)nc2c1 | 33.2 µM | 26.3 µM | 450 | 573 | 507
49 | CC(C)(C)NC(=O)c1cncn1C1CCN(c2ccc(-c3nnc(C(F)(F)F)o3)cn2)CC1 | 1.66 µM | 7.42 µM | 381 | 539 | 475
50 | COC1=C(OCCCN2CCOCC2)C=CC\3=C1/N=C(/NC(=O)C4=CN=C(N)N=C4)N5CC/N=C35 | 0.0382 µM | 0.108 µM | 431 | 542 | 452
51 | CCOc1cc(CC(=O)N[C@@H](CC(C)C)c2ccccc2N2CCCCC2)ccc1C(=O)O | 0.0059 µM | 5.25 µM | 221 | 240 | 188
52 | C[C@@H]1CN(Cc2ccc(F)cc2)CCN1C(=O)COc1ccc(Cl)cc1NC(N)=O | 1.86 µM | 0.166 µM | 412 | 522 | 465
53 | Cc1cc(Nc2ncnc3ccc(-c4ccc(CNCC[S+](C)(=O)[O-])o4)cc23)ccc1Oc1ccn2ncnc2c1 | 23.5 µM | 8.33 µM | 386 | 355 | 392
54 | Cc1cnc(Nc2ccc(N3CCN(C)CC3)cc2)nc1Nc1cccc([S+](=O)([O-])NC(C)(C)C)c1 | 14.8 µM | 9.34 µM | 466 | 529 | 421
55 | Cc1cc(C)c([S+](=O)([O-])N(CCc2cccc(Br)c2)Cc2ccc(-c3cccc([S+](C)(=O)[O-])c3)cc2)c(C)c1 | 0.833 µM | 7.42 µM | 412 | 417 | 442
56 | COc1cc(/C=C/C(=O)CC(=O)/C=C/c2ccc(O)c(OC)c2)ccc1O | 23.5 µM | 26.3 µM | 548 | 591 | 545
57 | NC(=O)c1cccc2nc(-c3ccc([C@H]4CCCN4)cc3F)[nH]c12 | 8.33 µM | 7.42 µM | 453 | 576 | 464
58 | Cc1nnn(C)c1-c1cnc2c3ccc(C(C)(C)O)cc3n([C@H](c3ccccc3)C3CCOCC3)c2c1 | 0.468 µM | 0.0166 µM | 416 | 482 | 425
59 | CCc1cncnc1N1CCN(Cc2nc3cc(C(F)(F)F)ccc3[nH]2)CC1 | 20.9 µM | 20.9 µM | 438 | 590 | 502
